Data from patent US8440711B2, “2-aryl-2-fluoropropanoic acids and derivatives and pharmaceutical compositions containing them” (Dompe Pha.r.ma S.p.A., priority 2006, dated 2013).
Where a name gives a salt, the structure may show the parent alone. Read-outs that look alike come from different tables or passages of the source. Each block holds one molecule with its values, some of them ahead of it.

Columns and labels:
[1] = test system: CXCL8 induced chemotaxis of polymorphonucleate leukocytes (PMNs); assay: CXCL8 induced chemotaxis of human PMNs; assay type: cell-based; conditions: Leukocyte; for inhibition at 0.001 µM: 10^−9 M
Description: (§1) The compounds of the invention of formula (I) were evaluated in vitro for their ability to inhibit chemotaxis of polymorphonucleate leukocytes (hereinafter referred to as PMNs) and monocytes induced by the fractions of CXCL8 and GRO-α and C5a and compared to the corresponding non fluorinated parent compounds. For this purpose, in order to isolate the PMNs from heparinized human blood, taken from healthy adult volunteers, mononucleates were removed by means of sedimentation on dextran (according to the procedure disclosed by W. J. Ming et al., J. Immunol., 138, 1469, 1987) and red blood cells by a hypotonic solution. The cell vitality was calculated by exclusion with Trypan blue, whilst the ratio of the circulating polymorphonucleates was estimated on the cytocentrifugate after staining with Diff Quick.
In the CXCL8 induced chemotaxis assay human recombinant CXCL8 (Pepro Tech) was used as stimulating agents in the chemotaxis experiments: the lyophilized protein was dissolved in a volume of HBSS containing 0.2% bovin serum albumin (BSA) so thus to obtain a stock solution having a concentration of 10^−5 M to be diluted in HBSS to a concentration of 10^−9 M, for the chemotaxis assays.
(§2) In the chemotaxis experiments, the PMNs were incubated with the compounds of the invention of formula (I) for 15′ at 37° C. in an atmosphere containing 5% CO2.
(§3) During the chemotaxis assay (W. Falket et al., J. Immunol. Methods, 33, 239, 1980) PVP-free filters with a porosity of 5 μm and microchambers suitable for replication were used.
(§4) The compounds of the invention in formula (I) were evaluated at a concentration ranging between 10^−6 and 10^−10 M; for this purpose they were added, at the same concentration, both to the lower pores and the upper pores of the microchamber. Evaluation of the ability of the compounds of the invention of formula (I) to inhibit the chemotaxis of human monocytes was carried out according to the method disclosed (Van Damme J. et al., Eur. J. Immunol., 19, 2367, 1989).

[2] = test system: GRO-α induced chemotaxis of polymorphonucleate leukocytes (PMNs); assay: GRO-α induced chemotaxis of human PMNs; assay type: cell-based; conditions: Leukocyte; for inhibition at 0.01 µM: 10^−8 M
Description: as §1
GRO-α induced chemotaxis inhibition was evaluated in an analogous assay.
as §2, §3, §4

[3] = Protein binding in rat plasma (ultrafiltration); assay type: in vitro ADME; conditions: 37° C.
Description: (§5) Protein Binding was determined as follows: Duplicate rat plasma samples of each compound at 50 μg/mL concentration were incubated at 37° C. for 20 minutes under gentle shaking. Then samples were ultrafiltrated through Centrifree® micropartition devices by centrifugation at 1500 g for 15 minutes. The ultrafiltrate was subjected to HPLC-MS/MS quantitative analysis (Column Luna C18, 150×2 mm ID 5 μm (Phenomenex), mobile phase: eluent A) 0.02M HCOO—NH4+ (pH 4.3 with HCOOH); eluent B) CH3OH).

[4] = Pharmacokinetic profile after intravenous and oral administration; assay type: in vivo; conditions: male, rat, plasma; for bioavailability: po; for half-life: read-out: t½ (converted)
Description: The pharmacokinetic profile of the compounds of formula (I) was evaluated in male mice or rats after intravenous and oral administration. The pharmacokinetic analysis was performed using plasmatic concentrations of the compounds at different times. The data were evaluated by Kinetica 2000™, Version 3.0 Software [InnaPhase Corporation, World headquarters, 1700 Race Street, Philadelphia, Pa. 19103 USA]. The pharmacokinetic parameters were calculated according the following formulas: Kel=elimination rate constant; t1/2=In2/Kel, AUC=AUC0n+AUCextra, where AUC0n=AUC from t=0 to t last (Trapezoidal Method) and AUCextra=extrapolated AUC=Clast/Kel; Clearance=D/AUC; Vd=Cl/Kel; Oral bioavailability F=(AUCp.o./AUCi.v.)*(Di.v./Dp.o.)*100.

[5] = test system: C5a induced chemotaxis of polymorphonucleate leukocytes (PMNs); assay: C5a induced chemotaxis of human PMNs; assay type: cell-based; conditions: Leukocyte, 10^−8 M, Table 2
Description: as §1
In the C5a induced chemotaxis assay the fractions hr-C5a and hrC5a-desArg (Sigma) were used as stimulating agents in chemotaxis experiments, obtaining practically identical results. Lyophilized C5a was dissolved in a volume of HBSS containing 0.2% BSA so as to obtain a stock solution having a concentration of 10^−5 M, to be diluted in HBSS to a concentration of 10^−9 M, for the chemotaxis assays.
as §2
The chemotactic activity of the C5a was evaluated on human circulating polymorphonucleates (PMNs) resuspended in HBSS at a concentration of 1.5×10^6 PMNs per nil.
as §3, §4

[6] = Protein binding, experiments performed in mouse; assay type: in vitro ADME; conditions: plasma; values marked *: experiments performed in mouse
Description: as §5

[7] = Table 1, read-out: CXCL8 (% inhibition at 10^−9 M)
[8] = values marked *: 10^−7 M, Table 1, read-out: GRO-α (% of inhibition at 10^−7 M)

SMILES: C[C@H](NC(=O)[C@](C)(F)c1ccc(OS(=O)(=O)C(F)(F)F)cc1)C(=O)O [Compound 15, (2S)-2-{[(2R)-2-fluoro-2-(4-{[(trifluoromethyl)sulfonyl]oxy}phenyl)propanoyl]amino}propanoic acid]
inhibition at 0.001 µM [1, 7]: 55 ± 8%

SMILES: CONC(=O)C(C)(F)c1ccc(OS(=O)(=O)C(F)(F)F)cc1 (centres unmarked) [Compound 11, 4-[1-fluoro-2-(methoxyamino)-1-methyl-2-oxoethyl]phenyl trifluoromethanesulfonate]
inhibition at 0.01 µM ([2]; Table 1): 7 ± 8%
inhibition at 0.1 µM ([1]; values marked *: 10^−7 M, Table 1, read-out: CXCL8 (% of inhibition at 10^−7 M)): 40 ± 10%

melting point: 85 to 87 °C
SMILES: CC(F)(C(N)=O)c1ccc(OS(=O)(=O)C(F)(F)F)cc1 (centres unmarked) (as salt: methanesulfonate) [Compound 8, 4-(2-amino-1-fluoro-1-methyl-2-oxoethyl)phenyl trifluoromethanesulfonate]

SMILES: CC(F)(C(=O)O)c1ccc(OS(=O)(=O)C(F)(F)F)cc1 (centres unmarked) [Compound 1, 2-Fluoro-2-(4-{[(trifluoromethyl)sulfonyl]oxy}phenyl) propanoic acid]
inhibition at 0.1 µM [2, 8]: 47 ± 10%

fraction unbound at 20 min, 50 μg/mL [3]: 0.2
Vd [4]: 1.33 L/kg
clearance [4]: 0.65 mL/min/kg
bioavailability [4]: 85%
half-life [4]: 25 h
SMILES: CC(O)(C(N)=O)c1ccc(OS(=O)(=O)C(F)(F)F)cc1 (centres unmarked)

SMILES: C[C@H](NC(=O)C(C)(F)c1cccc(Nc2nc(C(F)(F)F)cs2)c1)C(=O)O (stereo partly drawn) [Compound 16, (2S)-2-{[2-fluoro-2-(3-{[4-(trifluoromethyl)-1,3-thiazol-2-yl]amino}phenyl)propanoyl]amino}propanoic acid]
inhibition at 0.001 µM [1, 7]: 50 ± 12%

SMILES: C[C@@](F)(C(N)=O)c1ccc(OS(=O)(=O)C(F)(F)F)cc1 [Compound 10, 4-[(1S)-2-amino-1-fluoro-1-methyl-2-oxoethyl)phenyl trifluoromethanesulfonate]
inhibition at 0.01 µM ([2]; Table 1): 10 ± 12%
inhibition at 0.001 µM [1, 7]: 50 ± 6%

SMILES: CC(F)(C(=O)O)c1cccc(C(=O)c2ccccc2)c1 (centres unmarked) [Compound 6, 2-(3-benzoylphenyl)-2-fluoropropanoic acid]
inhibition at 0.01 µM ([2]; Table 1): 42 ± 4%

SMILES: CC(F)(C(N)=O)c1cccc(C(=O)c2ccccc2)c1 (centres unmarked) [Compound 13, 2-(3-benzoylphenyl)-2-fluoropropanamide]
inhibition at 0.01 µM [5]: 47 ± 9%
inhibition at 0.1 µM ([2]; marked *, no footnote in Table 2 (Table 1: * = 10^−7 M), read-out: GRO-α (% inhibition), value marked *): 50 ± 12%
inhibition at 0.1 µM ([1]; marked *, no footnote in Table 2 (Table 1: * = 10^−7 M), read-out: CSCL8 (% inhibition), value marked *): 52 ± 8%

SMILES: C[C@](F)(C(=O)NC[C@H]1CCCN1)c1ccc(OS(=O)(=O)C(F)(F)F)cc1 [Compound 19, 4-((1R)-1-fluoro-1-methyl-2-oxo-2-{[(2R)-pyrrolidin-2-ylmethyl]amino}ethyl)phenyl trifluoromethanesulfonate]
inhibition at 0.01 µM [5]: 45 ± 4%

SMILES: C[C@](F)(C(=O)NS(C)(=O)=O)c1ccc(OS(=O)(=O)C(F)(F)F)cc1 [Compound 17, 4-{(1R)-1-fluoro-1-methyl-2-[(methylsulfonyl)amino]-2-oxoethyl}phenyl trifluoromethanesulfonate]
inhibition at 0.01 µM ([2]; Table 1): 57 ± 14%

SMILES: C[C@@](F)(C(=O)NCCCN1CCCC1)c1ccc(OS(=O)(=O)C(F)(F)F)cc1 [Compound 18]
inhibition at 0.01 µM [5]: 53 ± 5%

SMILES: CC(F)(C(N)=O)c1cccc(Nc2nc(C(F)(F)F)cs2)c1 (centres unmarked) [Compound 14, 2-fluoro-2-(3-{[4-(trifluoromethyl)-1,3-thiazol-2-yl]amino}phenyl)propanamide]
inhibition at 0.01 µM [5]: 33 ± 5%
inhibition at 0.01 µM ([2]; Table 2): 55 ± 7%
inhibition at 0.001 µM ([1]; Table 2, read-out: CSCL8 (% inhibition at 10^−9 M)): 36 ± 12%

fraction unbound at 20 min, 50 μg/mL [6]: 0.08
Vd [4]: 1.47 L/kg
clearance [4]: 2.28 mL/min/kg
bioavailability [4]: 84.2%
half-life [4]: 9.1 h
SMILES: C[C@@](F)(C(N)=O)c1ccc(OS(=O)(=O)C(F)(F)F)cc1 [drawing 25]

melting point: 90 to 94 °C
SMILES: C[C@](F)(C(=O)O)c1ccc(OS(=O)(=O)C(F)(F)F)cc1 [Compound 3, (2R)-2-fluoro-2-(4-{[(trifluoromethyl)sulfonyl]oxy}phenyl)propanoic acid]
inhibition at 0.1 µM [2, 8]: 49 ± 6%

SMILES: CC(C)NC(=O)C(C)(F)c1ccc(OS(=O)(=O)C(F)(F)F)cc1 (centres unmarked) [Compound 12, 4-[1-fluoro-2-(isopropylamino)-1-methyl-2-oxoethyl]phenyl trifluoromethanesulfonate]
inhibition at 0.1 µM [2, 8]: 45 ± 8%

SMILES: CC(F)(C(N)=O)c1ccc(OS(=O)(=O)C(F)(F)F)cc1 (centres unmarked) [Compound 8, 4-(2-amino-1-fluoro-1-methyl-2-oxoethyl)phenyl trifluoromethanesulfonate]
inhibition at 0.01 µM ([2]; Table 1): 57 ± 12%
inhibition at 0.001 µM [1, 7]: 50 ± 9%

SMILES: C[C@@](F)(C(=O)NO)c1ccc(OS(=O)(=O)C(F)(F)F)cc1 [Compound 4, 4-[(1S)-1-fluoro-2-(hydroxyamino)-1-methyl-2-oxoethyl}phenyl trifluoromethanesulfonate]
inhibition at 0.01 µM ([2]; Table 1): 55 ± 10%

fraction unbound at 20 min, 50 μg/mL [6]: 0.05
Vd [4]: 0.631 L/kg
clearance [4]: 0.53 mL/min/kg
bioavailability [4]: 46.8%
half-life [4]: 13.8 h
SMILES: C[C@](F)(C(N)=O)c1ccc(OS(=O)(=O)C(F)(F)F)cc1 [drawing 24]

SMILES: CC(F)(C(=O)O)c1cccc(Nc2nc(C(F)(F)F)cs2)c1 (centres unmarked) [Compound 7]
inhibition at 0.01 µM ([2]; Table 1): 60 ± 10%
inhibition at 0.001 µM [1, 7]: 21 ± 6%

SMILES: C[C@](F)(C(N)=O)c1ccc(OS(=O)(=O)C(F)(F)F)cc1 [Compound 9, 4-[(1R)-2-amino-1-fluoro-1-methyl-2-oxoethyl)phenyl trifluoromethanesulfonate]
inhibition at 0.01 µM ([2]; Table 1): 53 ± 9%

SMILES: CN(O)C(=O)[C@@](C)(F)c1ccc(OS(=O)(=O)C(F)(F)F)cc1 [Compound 5, 4-[(1S)-1-fluoro-2-[hydroxyl(methyl)amino]-1-methyl-2-oxoethyl}phenyl trifluoromethane sulfonate]
inhibition at 0.01 µM ([2]; Table 1): 40 ± 8%

melting point: 91 to 94 °C
SMILES: C[C@@](F)(C(=O)O)c1ccc(OS(=O)(=O)C(F)(F)F)cc1 [Compound 2, (2S)-2-fluoro-2-(4-{[(trifluoromethyl)sulfonyl]oxy}phenyl)propanoic acid]
inhibition at 0.1 µM [2, 8]: 43 ± 15%

fraction unbound at 20 min, 50 μg/mL [3]: 0.06
Vd [4]: 0.55 L/kg
clearance [4]: 3.67 mL/min/kg
bioavailability [4]: 72%
half-life [4]: 1.9 h
SMILES: C[C@@H](C(N)=O)c1ccc(OS(=O)(=O)C(F)(F)F)cc1
